According to patent US5112595A, “99MTC(III) myocardial imaging agents and method of use” (Mallinckrodt Medical, Inc., priority 1990, dated 1992):

Test: Biodistribution of Tc-99m (III) complexes in guinea pigs
Format: in vivo
Excerpt: Biodistribution Data of Selected Tc-99m (III) Complexes in Guinea Pigs

Row | % Heart uptake (5 min) [%Injected dose/Organ] | % Heart uptake (60 min) [%Injected dose/Organ] | Heart/Blood (ratio at 5 min) | Heart/Liver (ratio at 5 min) | Heart/Blood (ratio at 60 min) | Heart/Liver (ratio at 60 min) | Substance
1 | 0.8 | 0.9 | 5.4 | 1.2 | 58.6 | 3.0 | trans-[1,2-bis[dihydro-2,2,5,5-tetramethyl-3(2H)furanone-4-methyleneamino]ethane]bis-tris(2-(2-(1,3-dioxanyl))]ethylphosphine]technetium-99m(III) [Complex IV]
2 | 1.1 | 1.0 | 5.9 | 0.9 | 3.5 | 1.5 | trans-[1,2-bis[dihydro-2,2,5,5-tetramethyl-3(2H)furanthione-4-methyleneamino]ethane]-bis[tris(3-methoxypropyl)phosphine]technetium-99m (III) [Complex III]
3 | 0.9 | 0.8 | 6.1 | 1.6 | 26.5 | 5.6 | trans-[1-[dihydro-2,2,5,5-tetramethyl-3(2H)furanthione-4-methyleneamino]-2-[dihydro-2,2,5,5-tetramethyl-3(2H)furanone-4-methyleneaminoethane]bis[tris(3-methoxypropyl)phosphine]technetium99 m(III) [Complex II]

Row | Substance | % Heart uptake (5 min) [%Injected dose/Organ] | % Heart uptake (60 min) [%Injected dose/Organ] | Heart/Blood (ratio at 5 min) | Heart/Liver (ratio at 5 min) | Heart/Blood (ratio at 60 min) | Heart/Liver (ratio at 60 min)
4 | trans-[1,2-bis[dihydro-2,2,5,5-tetramethyl-3(2H)furanone-4-methyleneamino]ethane]bis-[tris(3-methoxypropyl)phosphine]technetium-99 m(III) [Complex I] | 0.8 | 0.9 | 4.6 | 1.5 | 35.6 | 6.6
